Data reported in article PMC4858680, “A platinum-based hybrid drug design approach to circumvent acquired resistance to molecular targeted tyrosine kinase inhibitors” (Scientific Reports, 2016).
Where two headings read alike, the source gives them in different places.

Key:
CSK [1] = molecular target: T1, CSK (Homo sapiens, UniProt P41240); settings: 10 μM
KIT(V559D) = KIT(V559D) (Homo sapiens, UniProt P10721, V559D); settings: 10 μM
RET = RET (Homo sapiens, UniProt P07949); settings: 10 μM
AXL = molecular target: T2, AXL (Homo sapiens, UniProt P30530); settings: 10 μM
T2 sequence (P30530 26-894): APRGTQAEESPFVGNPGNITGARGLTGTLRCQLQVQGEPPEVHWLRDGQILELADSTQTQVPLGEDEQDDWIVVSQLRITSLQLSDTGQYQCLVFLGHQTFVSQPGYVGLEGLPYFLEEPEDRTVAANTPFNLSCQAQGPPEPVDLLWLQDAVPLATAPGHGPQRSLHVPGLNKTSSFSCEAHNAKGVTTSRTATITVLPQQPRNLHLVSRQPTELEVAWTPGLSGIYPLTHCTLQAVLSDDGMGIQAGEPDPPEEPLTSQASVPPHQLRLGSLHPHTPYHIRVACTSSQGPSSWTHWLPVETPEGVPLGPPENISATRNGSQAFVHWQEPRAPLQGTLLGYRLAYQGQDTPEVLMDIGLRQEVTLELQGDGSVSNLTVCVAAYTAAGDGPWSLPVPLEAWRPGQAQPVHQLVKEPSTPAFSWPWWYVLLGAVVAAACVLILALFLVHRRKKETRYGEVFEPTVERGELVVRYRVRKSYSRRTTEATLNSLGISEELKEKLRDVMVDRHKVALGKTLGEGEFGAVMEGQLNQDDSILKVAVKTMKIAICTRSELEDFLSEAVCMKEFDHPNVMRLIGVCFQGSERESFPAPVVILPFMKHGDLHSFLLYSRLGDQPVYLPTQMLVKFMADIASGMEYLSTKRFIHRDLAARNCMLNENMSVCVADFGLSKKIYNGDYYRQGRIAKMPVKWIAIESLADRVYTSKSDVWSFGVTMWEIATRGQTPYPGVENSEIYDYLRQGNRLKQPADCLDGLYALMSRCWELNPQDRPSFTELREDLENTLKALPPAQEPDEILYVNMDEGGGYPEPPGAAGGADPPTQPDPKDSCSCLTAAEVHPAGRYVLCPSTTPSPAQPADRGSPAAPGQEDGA

KIT(A829P) = KIT(A829P) (Homo sapiens, UniProt P10721, A829P); settings: 10 μM
ERBB2 = molecular target: T3, ERBB2 (Homo sapiens, UniProt P04626); assay type: binding; settings: for remaining binding at 10 µM: read-out: Percent control
T3 construct: purchased DiscoveRx KINOMEscan

EPHB4 = molecular target: T4, EPHB4 (Homo sapiens, UniProt P54760); settings: 10 μM
T4 sequence (P54760 16-987): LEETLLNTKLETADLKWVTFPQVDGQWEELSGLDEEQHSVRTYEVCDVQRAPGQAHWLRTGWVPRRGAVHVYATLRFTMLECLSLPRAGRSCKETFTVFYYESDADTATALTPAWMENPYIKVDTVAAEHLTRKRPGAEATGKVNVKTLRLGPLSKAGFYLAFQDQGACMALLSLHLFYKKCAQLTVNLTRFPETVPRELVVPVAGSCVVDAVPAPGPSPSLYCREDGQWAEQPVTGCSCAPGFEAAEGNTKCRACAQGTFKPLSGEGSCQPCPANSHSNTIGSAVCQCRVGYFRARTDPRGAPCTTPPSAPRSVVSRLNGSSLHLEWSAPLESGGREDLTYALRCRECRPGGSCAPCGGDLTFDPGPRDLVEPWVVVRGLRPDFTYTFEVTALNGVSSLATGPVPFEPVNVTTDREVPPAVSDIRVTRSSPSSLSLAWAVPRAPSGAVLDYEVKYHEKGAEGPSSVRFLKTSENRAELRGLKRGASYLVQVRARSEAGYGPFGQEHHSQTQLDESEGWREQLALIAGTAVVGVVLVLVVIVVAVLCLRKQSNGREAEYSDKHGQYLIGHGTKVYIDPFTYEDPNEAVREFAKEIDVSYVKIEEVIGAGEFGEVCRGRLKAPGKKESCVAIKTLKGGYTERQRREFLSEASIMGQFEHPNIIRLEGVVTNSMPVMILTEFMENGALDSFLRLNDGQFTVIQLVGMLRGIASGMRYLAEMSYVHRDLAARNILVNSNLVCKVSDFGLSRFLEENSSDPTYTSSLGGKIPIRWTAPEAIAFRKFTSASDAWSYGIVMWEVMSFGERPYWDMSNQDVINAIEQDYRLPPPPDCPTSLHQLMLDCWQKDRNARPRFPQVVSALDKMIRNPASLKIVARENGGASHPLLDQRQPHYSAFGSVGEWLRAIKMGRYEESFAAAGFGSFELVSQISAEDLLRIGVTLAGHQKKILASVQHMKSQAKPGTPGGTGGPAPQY

CSK [2] = molecular target: T1, CSK; assay: biochemical; settings: read-out: Percent control

Chain of KIT(A829P) (P10721 26-976 A829P): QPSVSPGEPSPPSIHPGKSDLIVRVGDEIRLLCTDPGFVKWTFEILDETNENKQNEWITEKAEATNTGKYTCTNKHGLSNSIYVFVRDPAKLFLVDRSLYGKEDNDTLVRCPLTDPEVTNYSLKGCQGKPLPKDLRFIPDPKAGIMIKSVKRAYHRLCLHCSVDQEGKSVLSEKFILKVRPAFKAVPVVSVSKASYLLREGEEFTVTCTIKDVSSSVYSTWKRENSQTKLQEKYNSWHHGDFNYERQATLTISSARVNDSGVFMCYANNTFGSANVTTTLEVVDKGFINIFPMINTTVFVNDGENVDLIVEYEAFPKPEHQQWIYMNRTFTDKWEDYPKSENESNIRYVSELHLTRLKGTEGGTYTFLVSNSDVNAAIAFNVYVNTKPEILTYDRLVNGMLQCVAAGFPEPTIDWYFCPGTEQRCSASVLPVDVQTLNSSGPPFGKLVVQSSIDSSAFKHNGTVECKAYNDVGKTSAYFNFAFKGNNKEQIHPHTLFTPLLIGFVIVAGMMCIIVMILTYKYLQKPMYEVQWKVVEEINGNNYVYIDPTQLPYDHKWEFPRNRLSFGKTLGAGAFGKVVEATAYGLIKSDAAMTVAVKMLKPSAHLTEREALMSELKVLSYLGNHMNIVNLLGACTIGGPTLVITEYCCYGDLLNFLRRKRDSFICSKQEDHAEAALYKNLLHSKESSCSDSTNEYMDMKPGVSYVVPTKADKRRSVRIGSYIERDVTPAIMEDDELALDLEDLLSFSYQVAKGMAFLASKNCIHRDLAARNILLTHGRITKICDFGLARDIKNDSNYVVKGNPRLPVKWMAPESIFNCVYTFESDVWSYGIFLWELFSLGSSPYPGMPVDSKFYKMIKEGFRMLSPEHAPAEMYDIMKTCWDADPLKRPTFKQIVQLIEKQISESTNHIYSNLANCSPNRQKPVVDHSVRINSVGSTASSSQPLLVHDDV
T3 sequence (P04626 23-1255): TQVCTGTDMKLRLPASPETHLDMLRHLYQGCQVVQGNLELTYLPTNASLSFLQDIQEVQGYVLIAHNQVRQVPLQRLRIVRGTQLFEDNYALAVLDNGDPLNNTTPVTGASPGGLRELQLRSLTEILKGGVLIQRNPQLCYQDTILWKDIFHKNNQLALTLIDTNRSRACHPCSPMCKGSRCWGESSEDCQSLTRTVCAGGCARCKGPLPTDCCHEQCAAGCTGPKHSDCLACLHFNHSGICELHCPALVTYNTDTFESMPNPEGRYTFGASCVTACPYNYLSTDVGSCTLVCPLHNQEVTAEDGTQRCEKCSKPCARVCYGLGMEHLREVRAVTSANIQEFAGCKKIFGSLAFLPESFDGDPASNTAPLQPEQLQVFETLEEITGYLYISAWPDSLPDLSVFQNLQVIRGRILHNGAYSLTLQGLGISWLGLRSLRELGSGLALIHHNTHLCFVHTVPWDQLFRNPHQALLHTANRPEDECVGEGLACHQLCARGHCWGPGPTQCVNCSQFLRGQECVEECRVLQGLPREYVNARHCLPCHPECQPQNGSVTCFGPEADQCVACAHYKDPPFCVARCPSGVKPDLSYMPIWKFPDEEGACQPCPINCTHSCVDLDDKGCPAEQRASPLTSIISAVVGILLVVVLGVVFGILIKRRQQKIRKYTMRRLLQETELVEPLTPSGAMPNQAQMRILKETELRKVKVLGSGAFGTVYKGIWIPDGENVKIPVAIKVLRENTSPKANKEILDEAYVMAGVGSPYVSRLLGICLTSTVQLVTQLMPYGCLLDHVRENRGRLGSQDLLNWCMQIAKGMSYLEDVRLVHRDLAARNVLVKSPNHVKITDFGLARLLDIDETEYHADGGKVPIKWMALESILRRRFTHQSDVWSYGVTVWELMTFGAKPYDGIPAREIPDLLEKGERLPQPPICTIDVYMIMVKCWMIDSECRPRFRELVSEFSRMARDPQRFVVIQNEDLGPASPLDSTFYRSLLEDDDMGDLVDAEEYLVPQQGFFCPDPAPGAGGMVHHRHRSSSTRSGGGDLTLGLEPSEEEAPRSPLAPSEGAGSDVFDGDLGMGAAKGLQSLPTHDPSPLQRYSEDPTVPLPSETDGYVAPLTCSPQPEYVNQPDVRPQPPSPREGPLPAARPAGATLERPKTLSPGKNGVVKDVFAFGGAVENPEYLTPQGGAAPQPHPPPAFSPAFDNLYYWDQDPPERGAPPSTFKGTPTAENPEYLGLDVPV
Chain of KIT(V559D) (P10721 26-976 V559D): as the sequence (P10721 26-976 A829P) above, with V534D, P804A counted along it
Chain of RET (P07949 29-1114): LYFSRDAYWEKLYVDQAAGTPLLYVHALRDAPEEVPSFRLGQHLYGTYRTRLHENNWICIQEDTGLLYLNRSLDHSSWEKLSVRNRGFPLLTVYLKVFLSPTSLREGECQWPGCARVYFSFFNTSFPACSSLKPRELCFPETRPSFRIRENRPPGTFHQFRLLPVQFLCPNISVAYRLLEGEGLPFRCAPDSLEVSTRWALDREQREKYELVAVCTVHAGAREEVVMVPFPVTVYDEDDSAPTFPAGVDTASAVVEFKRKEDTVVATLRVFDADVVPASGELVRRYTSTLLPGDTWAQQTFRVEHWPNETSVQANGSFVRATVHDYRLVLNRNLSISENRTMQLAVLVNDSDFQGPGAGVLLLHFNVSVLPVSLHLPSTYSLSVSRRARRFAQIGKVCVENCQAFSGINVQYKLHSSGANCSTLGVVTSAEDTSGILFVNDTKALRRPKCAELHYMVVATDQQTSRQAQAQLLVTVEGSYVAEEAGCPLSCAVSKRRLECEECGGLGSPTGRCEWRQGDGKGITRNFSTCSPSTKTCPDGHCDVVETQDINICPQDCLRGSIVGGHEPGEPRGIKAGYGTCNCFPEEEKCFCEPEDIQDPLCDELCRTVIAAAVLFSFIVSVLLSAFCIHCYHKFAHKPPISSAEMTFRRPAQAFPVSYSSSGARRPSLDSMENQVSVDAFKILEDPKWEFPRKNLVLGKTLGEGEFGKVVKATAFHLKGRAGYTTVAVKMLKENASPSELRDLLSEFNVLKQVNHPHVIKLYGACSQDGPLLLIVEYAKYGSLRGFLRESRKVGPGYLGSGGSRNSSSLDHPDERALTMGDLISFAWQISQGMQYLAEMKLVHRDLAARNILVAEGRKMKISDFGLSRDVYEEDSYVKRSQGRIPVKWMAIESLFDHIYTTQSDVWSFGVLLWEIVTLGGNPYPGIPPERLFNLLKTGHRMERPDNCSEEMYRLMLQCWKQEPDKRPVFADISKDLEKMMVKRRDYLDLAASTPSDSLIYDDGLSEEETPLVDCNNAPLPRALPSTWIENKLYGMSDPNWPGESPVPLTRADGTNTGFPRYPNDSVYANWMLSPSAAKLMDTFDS
T1 sequence (P41240 whole entry): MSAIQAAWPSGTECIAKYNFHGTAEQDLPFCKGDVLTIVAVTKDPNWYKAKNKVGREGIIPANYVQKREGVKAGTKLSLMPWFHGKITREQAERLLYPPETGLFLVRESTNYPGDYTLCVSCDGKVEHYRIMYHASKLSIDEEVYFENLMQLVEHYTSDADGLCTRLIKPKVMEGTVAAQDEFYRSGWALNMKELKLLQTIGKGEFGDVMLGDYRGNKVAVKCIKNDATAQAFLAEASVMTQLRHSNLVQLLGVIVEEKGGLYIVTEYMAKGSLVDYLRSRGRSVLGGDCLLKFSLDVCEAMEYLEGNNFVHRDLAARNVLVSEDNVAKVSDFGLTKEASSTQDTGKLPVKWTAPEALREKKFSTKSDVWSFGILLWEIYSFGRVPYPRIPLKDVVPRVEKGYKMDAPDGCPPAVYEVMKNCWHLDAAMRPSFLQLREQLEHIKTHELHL

Row | SMILES | Percent control (CSK [1]) [%] | Percent control (KIT(V559D)) [%] | Percent control (RET) [%] | Percent control (AXL) [%] | Percent control (KIT(A829P)) [%] | Percent control (ERBB2; ERBB2, 10 μM) [%] | Percent control (EPHB4) [%] | remaining activity at 10 µM (CSK [2]) [%] | remaining binding at 10 µM (ERBB2) [%] | remaining binding at 10 µM (ERBB2; ERBB2, 10 μM) [%]
1 | Cc1ccc(NC(=O)c2ccc(CN3CCN(C)CC3)cc2)cc1Nc1nccc(-c2cccnc2)[n+]1[Pt-2]1([Cl])[NH2+]C2CCCCC2[NH2+]1 (stereo not shown) [1b, oxaliplatin-imatinib] | 100 | 0 | 95 | 100 | 5 | 82 | 100 |  |  | 
2 | C#Cc1cccc(Nc2c3cc(OCCOC)c(OCCOC)cc3nc[n+]2[Pt@SP2-2]([NH3+])([NH3+])[Cl])c1 [2a, cisplatin-erlotinib] | 100 | 88 | 46 | 93 | 56 | 21 | 91 |  |  | 
3 | COc1cc2c(Nc3ccc(Br)cc3F)[n+]([Pt-2]3([Cl])[NH2+]C4CCCCC4[NH2+]3)cnc2cc1OCC1CCN(C)CC1 (stereo not shown) [3b, oxaliplatin-vandetanib] | 41 | 0.5 |  | 19 | 2.7 |  | 35 |  |  | 
4 | C#Cc1cccc(Nc2ncnc3cc(OCCOC)c(OCCOC)cc23)c1 [Erlotinib] |  |  |  |  |  |  |  | 49 | 22.5 | 
5 | Cc1ccc(NC(=O)c2ccc(CN3CCN(C)CC3)cc2)cc1Nc1nccc(-c2cccnc2)n1 [Imatinib, reference compound] |  |  | 100 | 100 |  | 100 | 100 | 100 |  | 
6 | COc1cc2c(Nc3ccc(Br)cc3F)ncnc2cc1OCC1CCN(C)CC1 [Vandetanib, reference compound] |  |  |  |  |  |  |  | 20 |  | 20.6
